Bridge positions count the residues as written; N and C are the ends. Square brackets hold non-standard residues; d marks the D form. Peptide text beside a SMILES is read from it. R8 = C=CCCCCCC[C@@](C)(N)C(=O)O; S5 = C=CCCC[C@](C)(N)C(=O)O; Nle = CCCC[C@H](N)C(=O)O
What was measured:
[1] = test system: HRE-bla ME-180 cells; assay: Cell proliferation assay (viability, MTT, 1% FBS); assay type: cell-based, human
Procedure, shortened: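 ME-180 cells (2×10^4/well) in Opti-MEM with 1% FBS were pretreated 16 h under normoxia (21% O2), vehicle 0.5% DMSO final. Incubation then continued under normoxia or hypoxia (1% O2); viable cells quantified by MTT-type CellTiter 96 assay.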

[2] = test system: HRE-bla ME-180 cells; assay: Reporter gene assay (HRE-bla ME-180 HIF reporter, GeneBLAzer); assay type: cell-based, human; settings: for EC50: 24 hour normoxia
Procedure, shortened: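 A FRET β-lactamase readout of HIF transcription was used. After compound treatment in 0.3% DMSO/media under normoxic conditions, 20 μl of 6× LiveBLAzer-FRET B/G (CCF4-AM) substrate was added. Plates sat 3 hr at room temperature in the dark and were read at 409 Ex/460Em and 409Ex/530Em on a Synergy 2. Inhibition was compared against DMSO vehicle controls, with chetomin as positive control.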

[3] = molecular target: T1, flag-tagged HIF1α (AA 786-826) / His6-tagged p300 (AA 323-423) complex (Homo sapiens, UniProt Q09472); assay: HIF1α p300 displacement assay (TR FRET, +CHAPS); assay type: binding; settings: read-out: IC50 (nM) (HIF1α_p300 Displacement + CHAPS)
T1 construct: His6-tagged p300 (AA 323-423); made in house; host or cells: E. coli (pETDuet vector)
Procedure, shortened: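 The co-expressed flag-HIF1α (786-826)/His6-p300 (323-423) complex, purified from E. coli with 0.1 mM ZnSO4, was used at 300 nM final with competitor peptides for 1 h at room temperature. Buffer was 150 mM NaCl, 20 mM HEPES pH 7.4, 7.5 mM CHAPS and 1 mM DTT. Anti-Flag-K (0.5 μM) and anti-His-D2 (4 nM) were then added for 2 h, and IC50s were fitted from the TR-FRET ratio.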

SMILES	EC50 [2] [µM]	IC50 [3] [nM]	Viability 1% FBS AVG (MTT V3-24 hr Normoxia) (μM) [1]	18 h Avg % max inhibition at top conc (HIF Rptr-24 hrs normoxia) (μM) [2]
CCCC[C@H](NC(=O)[C@H](CCC(=O)O)NC(=O)[C@@H](NC(=O)[C@@H](NC(=O)[C@H](CC(C)C)NC(=O)[C@]1(C)CCCC=CCCC[C@](C)(NC(=O)[C@H](CCC(=O)O)NC(=O)[C@H](CC(=O)O)NC(=O)[C@@H](NC(=O)[C@H](Cc2ccccc2)NC(C)=O)[C@@H](C)CC)C(=O)N[C@@H](C(C)C)C(=O)N[C@@H](CC(C)C)C(=O)N[C@@H](C)C(=O)N1)C(C)C)[C@@H](C)CC)C(=O)N[C@@H](C)C(=O)N[C@@H](CC(C)C)C(N)=O [SP-152] (Ac-FIDE[S5]VLA[S5]LVIE[Nle]AL-NH2; staple 5-9)	> 30	400 to 700	++++ (≥30: ++++)	+++ (≤25 but <50: +++)
CC[C@H](C)[C@H](NC(=O)[C@H](Cc1ccccc1)NC(C)=O)C(=O)N[C@@H](CC(=O)O)C(=O)N[C@@H](CCC(=O)O)C(=O)N[C@]1(C)CCCCCCC=CCCC[C@@](C)(C(=O)N[C@@H](CCC(=O)O)C(=O)N[C@@H](CCSC)C(=O)N[C@@H](C)C(=O)N[C@@H](CC(C)C)C(=O)N[C@@H](CC(=O)O)C(N)=O)NC(=O)[C@H](C(C)C)NC(=O)[C@H](CC(C)C)NC(=O)[C@H](CO)NC(=O)[C@H](CCSC)NC(=O)[C@H](CC(C)C)NC(=O)[C@H](C(C)C)NC1=O [SP-176] (Ac-FIDE[R8]VLMSLV[S5]EMALD-NH2; staple 5-12)	> 30	> 700	++++ (≥30: ++++)	++++ (≥50: ++++)
CCCC[C@H](NC(=O)[C@]1(C)CCCC=CCCC[C@](C)(NC(=O)[C@H](C)NC(=O)[C@H](Cc2ccccc2)NC(=O)[C@@H](NC(=O)[C@H](CCC(=O)O)NC(=O)[C@H](CCC(=O)O)NC(=O)[C@H](CC(=O)O)NC(=O)[C@@H](NC(=O)[C@H](Cc2ccccc2)NC(C)=O)[C@@H](C)CC)C(C)C)C(=O)N[C@@H](CC(C)C)C(=O)N[C@@H](C(C)C)C(=O)N[C@@H]([C@@H](C)CC)C(=O)N1)C(=O)N[C@@H](C)C(=O)N[C@@H](CC(C)C)C(=O)N[C@@H](CC(C)C)C(N)=O [SP-246] (Ac-FIDEEVFA[S5]LVI[S5][Nle]ALL-NH2; staple 9-13)	> 30	> 700	++++ (≥30: ++++)	+ (<10: +)
CC[C@H](C)[C@H](NC(=O)[C@H](C)NC(C)=O)C(=O)N[C@@H](CC(=O)O)C(=O)N[C@@H](CCC(=O)O)C(=O)N[C@@H](CCC(=O)O)C(=O)N[C@H](C(=O)N[C@@H](CC(C)C)C(=O)N[C@@H](CCSC)C(=O)N[C@@]1(C)CCCC=CCCC[C@@](C)(C(=O)N[C@@H](CCSC)C(=O)N[C@@H](C)C(=O)N[C@@H](CC(C)C)C(N)=O)NC(=O)[C@H]([C@@H](C)CC)NC(=O)[C@H](C(C)C)NC(=O)[C@H](CC(C)C)NC1=O)C(C)C [SP-217] (Ac-AIDEEVLM[S5]LVI[S5]MAL-NH2; staple 9-13)	> 30	> 700	++++ (≥30: ++++)	+++ (≤25 but <50: +++)
CCCC[C@H](NC(=O)[C@H](C)NC(=O)[C@H](CCSC)NC(=O)[C@]1(C)CCCC=CCCC[C@](C)(NC(=O)[C@H](CCSC)NC(=O)[C@H](CC(C)C)NC(=O)[C@@H](NC(=O)[C@H](CCC(=O)O)NC(=O)[C@H](CCC(=O)O)NC(=O)[C@H](CC(=O)O)NC(=O)[C@@H](NC(=O)[C@H](Cc2ccccc2)NC(C)=O)[C@@H](C)CC)C(C)C)C(=O)N[C@@H](CC(C)C)C(=O)N[C@@H](C(C)C)C(=O)N[C@@H]([C@@H](C)CC)C(=O)N1)C(N)=O [SP-227] (Ac-FIDEEVLM[S5]LVI[S5]MA[Nle]-NH2; staple 9-13)	> 30	> 700	++++ (≥30: ++++)	++ (≤10 but <25: ++)
CCCC[C@@H]1NC(=O)[C@H](CC(C)C)NC(=O)[C@](C)(NC(=O)[C@H](CCC(=O)O)NC(=O)[C@H](CCC(=O)O)NC(=O)[C@H](CC(=O)O)NC(=O)[C@@H](NC(=O)[C@H](Cc2ccccc2)NC(C)=O)[C@@H](C)CC)CCCCCCC=CCCC[C@@](C)(C(=O)N[C@@H](CCCC)C(=O)N[C@@H](C)C(=O)N[C@@H](CC(C)C)C(N)=O)NC(=O)[C@H]([C@@H](C)CC)NC(=O)[C@H](C(C)C)NC(=O)[C@H](CC(C)C)NC(=O)[C@H](CO)NC1=O [SP-199] (Ac-FIDEE[R8]L[Nle]SLVI[S5][Nle]AL-NH2; staple 6-13)	> 30	200 to 400	++++ (≥30: ++++)	+ (<10: +)

The next lines start with results.

EC50 [2] [µM]	IC50 [3] [nM]	SMILES	Viability 1% FBS AVG (MTT V3-24 hr Normoxia) (μM) [1]	18 h Avg % max inhibition at top conc (HIF Rptr-24 hrs normoxia) (μM) [2]
> 30	> 700	CCCC[C@H](NC(=O)[C@H](CCC(=O)O)NC(=O)[C@]1(C)CCCC=CCCCCCC[C@@](C)(NC(=O)[C@H](CCC(=O)O)NC(=O)[C@H](CC(=O)O)NC(=O)[C@@H](NC(=O)[C@H](CC(N)=O)NC(=O)[C@@H](NC(=O)[C@H](CCC(N)=O)NC(=O)[C@]2(C)CCCC=CCCC[C@](C)(NC(=O)[C@H](CC(C)C)NC(=O)[C@H](C)NC(=O)[C@H](CCC(=O)O)NC(=O)CNC(=O)[C@H](CCC(N)=O)NC(=O)[C@H](CC(C)C)NC(=O)[C@H](CC(C)C)NC(C)=O)C(=O)N[C@@H](CCCNC(=N)N)C(=O)N[C@@H](C)C(=O)N[C@@H](CC(C)C)C(=O)N2)C(C)C)[C@@H](C)CC)C(=O)N[C@@H](C(C)C)C(=O)N[C@@H](CC(C)C)C(=O)N[C@@H](CCCC)C(=O)N[C@@H](CO)C(=O)N[C@@H](CC(C)C)C(=O)N[C@@H](C(C)C)C(=O)N1)C(N)=O [SP-361] (Ac-LLQGEAL[S5]RAL[S5]QVNIDE[R8]VL[Nle]SLV[S5]E[Nle]-NH2; staple 8-12, 19-26)	++++ (≥30: ++++)	++ (≤10 but <25: ++)
15 to 30	400 to 700	CC[C@H](C)[C@H](NC(=O)[C@H](CCCNC(=N)N)NC(=O)[C@H](CC(=O)O)NC(=O)[C@H](CC(C)C)NC(=O)[C@H](C)NC(=O)[C@H](CCSC)NC(=O)[C@]1(C)CCCC=CCCC[C@](C)(NC(=O)[C@H](CCSC)NC(=O)[C@H](Cc2ccccc2)NC(=O)[C@@H](NC(=O)[C@H](CCC(=O)O)NC(=O)[C@H](CCC(=O)O)NC(=O)[C@H](CC(=O)O)NC(=O)[C@@H](NC(=O)[C@H](Cc2ccccc2)NC(C)=O)[C@@H](C)CC)C(C)C)C(=O)N[C@@H](CC(C)C)C(=O)N[C@@H](C(C)C)C(=O)N[C@@H]([C@@H](C)CC)C(=O)N1)C(N)=O [SP-264] (Ac-FIDEEVFM[S5]LVI[S5]MALDRI-NH2; staple 9-13)	++++ (≥30: ++++)	++ (≤10 but <25: ++)
≤ 5	> 700	CCCC[C@H](NC(=O)[C@H](CCC(=O)O)NC(=O)[C@]1(C)CCCC=CCCCCCC[C@@](C)(NC(=O)[C@H](CCC(=O)O)NC(=O)[C@H](CC(=O)O)NC(=O)[C@@H](NC(=O)[C@H](CC(N)=O)NC(=O)[C@@H](NC(=O)[C@H](CCC(N)=O)NC(=O)[C@]2(C)CCCC=CCCC[C@](C)(NC(=O)[C@H](CC(C)C)NC(=O)[C@H](CCC(=O)O)NC(=O)[C@H](CCC(=O)O)NC(C)=O)C(=O)N[C@@H](CCCNC(=N)N)C(=O)N[C@@H](C)C(=O)N[C@@H](CC(C)C)C(=O)N2)C(C)C)[C@@H](C)CC)C(=O)N[C@@H](C(C)C)C(=O)N[C@@H](CC(C)C)C(=O)N[C@@H](CCCC)C(=O)N[C@@H](CO)C(=O)N[C@@H](CC(C)C)C(=O)N[C@@H](C(C)C)C(=O)N1)C(N)=O [SP-366] (Ac-EEL[S5]RAL[S5]QVNIDE[R8]VL[Nle]SLV[S5]E[Nle]-NH2; staple 4-8, 15-22)	++++ (≥30: ++++)	++++ (≥50: ++++)
> 30	200 to 400	CCCC[C@H](NC(=O)[C@H](CCC(=O)O)NC(=O)[C@@H](NC(=O)[C@@H](NC(=O)[C@H](CC(C)C)NC(=O)[C@]1(C)CCCC=CCCC[C@](C)(NC(=O)[C@H](CCC(=O)O)NC(=O)[C@H](CC(=O)O)NC(=O)[C@@H](NC(=O)[C@H](CC(N)=O)NC(=O)[C@@H](NC(=O)[C@H](CCC(N)=O)NC(=O)[C@H](CC(=O)O)NC(=O)[C@H](CC(C)C)NC(=O)[C@H](C)NC(=O)[C@H](CCCNC(=N)N)NC(=O)[C@H](CC(C)C)NC(=O)[C@H](CC(C)C)NC(=O)[C@H](CCC(=O)O)NC(=O)[C@H](CCC(=O)O)NC(=O)CNC(=O)[C@H](CCC(N)=O)NC(=O)[C@H](CC(C)C)NC(=O)[C@H](CC(C)C)NC(C)=O)C(C)C)[C@@H](C)CC)C(=O)N[C@@H](C(C)C)C(=O)N[C@@H](CC(C)C)C(=O)N[C@@H](CCCC)C(=O)N1)C(C)C)[C@@H](C)CC)C(N)=O [SP-334] (Ac-LLQGEELLRALDQVNIDE[S5]VL[Nle][S5]LVIE[Nle]-NH2; staple 19-23)	++++ (≥30: ++++)	+ (<10: +)

Source: patent US20190225650A1, “PEPTIDOMIMETIC MACROCYCLES AND USE THEREOF IN REGULATING HIF1ALPHA” (AILERON THERAPEUTICS, INC., priority 2013, published 2019)
